# According to ChEMBL document CHEMBL1909046, “DrugMatrix in vitro pharmacology data”:
# Assays:
# [1] = DRUGMATRIX: Imidazoline I2, Central radioligand binding (ligand: [3H] Idazoxan); format: cell membranes, Rattus norvegicus, Wistar, Cerebral cortex, Membrane; details: Not Active = under 50% inhibition at 10 µM
# [2] = biological target: T1, Amine oxidase [flavin-containing] A (Homo sapiens, UniProt P21397); assay: DRUGMATRIX: Monoamine Oxidase MAO-A enzyme inhibition (substrate: Kynuramine); parameters: species or system BTI-TN-5B1-4; details: bti-tn-5b1-4; Not Active = under 50% inhibition at 10 µM
# T1 sequence (P21397 whole entry): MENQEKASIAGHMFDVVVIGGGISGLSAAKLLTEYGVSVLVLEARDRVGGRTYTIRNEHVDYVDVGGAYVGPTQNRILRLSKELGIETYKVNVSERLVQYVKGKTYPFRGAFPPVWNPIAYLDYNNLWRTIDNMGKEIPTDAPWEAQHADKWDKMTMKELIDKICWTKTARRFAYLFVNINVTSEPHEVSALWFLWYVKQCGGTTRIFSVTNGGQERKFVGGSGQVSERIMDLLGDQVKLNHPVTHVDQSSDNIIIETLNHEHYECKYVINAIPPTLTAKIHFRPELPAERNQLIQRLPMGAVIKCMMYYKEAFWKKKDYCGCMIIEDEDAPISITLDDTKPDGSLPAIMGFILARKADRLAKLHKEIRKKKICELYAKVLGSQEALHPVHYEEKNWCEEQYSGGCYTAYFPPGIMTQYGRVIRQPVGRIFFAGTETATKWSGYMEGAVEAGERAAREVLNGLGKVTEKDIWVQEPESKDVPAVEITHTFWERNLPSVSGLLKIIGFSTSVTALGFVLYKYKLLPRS
# [3] = biological target: Insulin receptor (Rattus norvegicus, UniProt P15127); format: cell membranes, Wistar, Liver, Membrane; also: in other assays of this panel Not Active means under 50% inhibition at 10 µM
# [4] = biological target: Histamine H2 receptor (Homo sapiens, UniProt P25021); format: cell membranes, CHO-K1, Membrane; also: in other assays of this panel Not Active means under 50% inhibition at 10 µM
# [5] = DRUGMATRIX: Sodium/nucleoside co-transporter radioligand binding (ligand: nitrobenzylthioinosine); format: cell membranes, Cavia porcellus, Dunkin-Hartley, Cerebral cortex, Membrane; details: Not Active = under 50% inhibition at 10 µM
# [6] = biological target: T2, Estrogen receptor (Homo sapiens, UniProt P03372); details: sf9; also: in other assays of this panel Not Active means under 50% inhibition at 10 µM
# T2 sequence (P03372 whole entry): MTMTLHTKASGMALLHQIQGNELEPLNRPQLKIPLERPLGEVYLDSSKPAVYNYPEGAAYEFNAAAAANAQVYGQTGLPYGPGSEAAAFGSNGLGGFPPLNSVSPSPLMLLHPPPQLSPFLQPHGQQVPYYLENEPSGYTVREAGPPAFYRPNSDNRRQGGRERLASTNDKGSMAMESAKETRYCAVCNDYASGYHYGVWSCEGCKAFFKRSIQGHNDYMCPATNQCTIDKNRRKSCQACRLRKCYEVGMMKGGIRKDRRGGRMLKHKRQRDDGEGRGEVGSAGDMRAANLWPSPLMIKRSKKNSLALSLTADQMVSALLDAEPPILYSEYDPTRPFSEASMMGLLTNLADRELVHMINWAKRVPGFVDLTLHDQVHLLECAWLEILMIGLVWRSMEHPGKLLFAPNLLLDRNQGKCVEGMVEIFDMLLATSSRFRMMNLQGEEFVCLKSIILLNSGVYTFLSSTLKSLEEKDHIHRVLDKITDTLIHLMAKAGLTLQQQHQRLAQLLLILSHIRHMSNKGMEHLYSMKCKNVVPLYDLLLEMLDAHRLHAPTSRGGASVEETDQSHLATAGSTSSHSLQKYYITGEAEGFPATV
# Histamine H2 receptor, sequence (P25021 whole entry): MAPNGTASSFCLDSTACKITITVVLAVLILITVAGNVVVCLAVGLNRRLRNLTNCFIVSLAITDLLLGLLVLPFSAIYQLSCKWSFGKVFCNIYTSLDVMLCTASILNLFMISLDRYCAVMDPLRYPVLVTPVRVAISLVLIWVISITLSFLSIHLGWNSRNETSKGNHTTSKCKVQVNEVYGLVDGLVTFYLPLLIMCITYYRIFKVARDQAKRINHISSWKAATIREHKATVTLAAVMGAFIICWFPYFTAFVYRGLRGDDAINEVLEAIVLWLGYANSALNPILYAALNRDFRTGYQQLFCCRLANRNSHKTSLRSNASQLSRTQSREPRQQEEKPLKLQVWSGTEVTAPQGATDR
# Insulin receptor, sequence (P15127 27-759 limits assumed): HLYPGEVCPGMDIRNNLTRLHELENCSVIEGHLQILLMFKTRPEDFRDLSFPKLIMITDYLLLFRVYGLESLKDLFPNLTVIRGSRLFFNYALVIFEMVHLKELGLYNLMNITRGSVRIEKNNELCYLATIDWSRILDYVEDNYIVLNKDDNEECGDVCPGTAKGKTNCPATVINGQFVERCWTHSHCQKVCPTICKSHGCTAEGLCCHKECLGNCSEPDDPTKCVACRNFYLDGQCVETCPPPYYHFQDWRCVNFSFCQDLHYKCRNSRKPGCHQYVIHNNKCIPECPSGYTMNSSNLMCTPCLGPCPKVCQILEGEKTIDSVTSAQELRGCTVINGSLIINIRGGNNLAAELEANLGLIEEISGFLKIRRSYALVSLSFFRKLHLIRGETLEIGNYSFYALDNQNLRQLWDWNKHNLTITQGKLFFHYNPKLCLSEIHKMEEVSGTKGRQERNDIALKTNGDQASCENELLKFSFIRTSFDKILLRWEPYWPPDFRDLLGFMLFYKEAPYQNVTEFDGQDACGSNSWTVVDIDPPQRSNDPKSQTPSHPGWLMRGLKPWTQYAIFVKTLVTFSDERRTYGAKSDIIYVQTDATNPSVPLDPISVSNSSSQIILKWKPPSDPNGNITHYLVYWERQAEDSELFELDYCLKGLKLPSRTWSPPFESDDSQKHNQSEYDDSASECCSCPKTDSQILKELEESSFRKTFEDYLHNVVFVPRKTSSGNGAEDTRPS
# Insulin receptor, sequence (P15127 764-1383 limits assumed): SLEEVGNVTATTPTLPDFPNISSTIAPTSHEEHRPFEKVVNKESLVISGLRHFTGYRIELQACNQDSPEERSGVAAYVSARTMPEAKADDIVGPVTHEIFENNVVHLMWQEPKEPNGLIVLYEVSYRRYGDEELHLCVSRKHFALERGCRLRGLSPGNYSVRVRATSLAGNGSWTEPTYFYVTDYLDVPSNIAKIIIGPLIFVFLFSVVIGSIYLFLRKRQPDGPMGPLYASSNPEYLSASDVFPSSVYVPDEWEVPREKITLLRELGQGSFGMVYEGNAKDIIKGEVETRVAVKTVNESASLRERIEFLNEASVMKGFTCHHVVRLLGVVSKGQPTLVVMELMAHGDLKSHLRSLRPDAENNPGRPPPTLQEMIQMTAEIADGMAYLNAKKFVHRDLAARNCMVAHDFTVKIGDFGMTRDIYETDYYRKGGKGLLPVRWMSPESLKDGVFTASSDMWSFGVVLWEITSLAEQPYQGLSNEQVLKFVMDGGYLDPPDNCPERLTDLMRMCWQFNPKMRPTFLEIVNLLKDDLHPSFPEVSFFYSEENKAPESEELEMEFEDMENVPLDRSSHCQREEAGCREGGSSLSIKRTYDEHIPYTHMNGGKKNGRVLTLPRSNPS
Compound,IC50 ([1]; read-out: IC50) [nM],Ki ([1]; read-out: Ki) [nM],IC50 [2],IC50 [3],IC50 ([4]; cho-k1),IC50 [5],Ki [5],IC50 [6],IC50 [1],Ki [1],IC50 ([5]; read-out: IC50) [nM],Ki ([5]; read-out: Ki) [nM],Ki [2],Ki [3],Ki ([4]; cho-k1),Ki [6],IC50 ([4]; read-out: IC50) [nM],Ki ([4]; read-out: Ki) [nM]
COc1nc(C)nc(Cl)c1NC1=NCCN1 [MOXONIDINE],1480,984,Not Active,Not Active,Not Active,Not Active,Not Active,Not Active,,,,,,,,,,
N[C@@H](Cc1ccc(O)c(O)c1)C(=O)O [LEVODOPA],,,Not Active,Not Active,Not Active,Not Active,Not Active,,Not Active,Not Active,,,,,,,,
OCCN(CCO)c1nc(N2CCCCC2)c2nc(N(CCO)CCO)nc(N3CCCCC3)c2n1 [DIPYRIDAMOLE],,,Not Active,Not Active,Not Active,,,Not Active,Not Active,Not Active,83,29,,,,,,
Cn1ccnc1S [METHIMAZOLE],,,Not Active,Not Active,Not Active,Not Active,Not Active,Not Active,Not Active,Not Active,,,,,,,,
CC(=O)[C@@]1(O)CC[C@H]2[C@@H]3C[C@H](C)C4=CC(=O)CC[C@]4(C)[C@H]3CC[C@@]21C,,,Not Active,Not Active,Not Active,Not Active,Not Active,Not Active,Not Active,Not Active,,,,,,,,
C=CCC1(C(C)CCC)C(=O)NC(=O)NC1=O (stereo unspecified) [SECOBARBITAL],,,Not Active,Not Active,Not Active,Not Active,Not Active,Not Active,Not Active,Not Active,,,,,,,,
C[C@@H]1CN(c2c(F)c(N)c3c(=O)c(C(=O)O)cn(C4CC4)c3c2F)C[C@H](C)N1 [SPARFLOXACIN],,,Not Active,Not Active,Not Active,Not Active,Not Active,Not Active,Not Active,Not Active,,,,,,,,
O=c1ncn2nc(Sc3ccc(F)cc3F)ccc2c1-c1c(Cl)cccc1Cl [NEFLAMAPIMOD],,,Not Active,Not Active,Not Active,Not Active,Not Active,Not Active,Not Active,Not Active,,,,,,,,
Nc1c2c(nc3ccccc13)CCCC2 [TACRINE],,,Not Active,Not Active,Not Active,Not Active,Not Active,Not Active,Not Active,Not Active,,,,,,,,
CO[C@H]1/C=C/O[C@@]2(C)Oc3c(C)c(O)c4c(O)c(c(/C=N/N5CCN(C)CC5)c(O)c4c3C2=O)NC(=O)/C(C)=C\C=C\[C@H](C)[C@H](O)[C@@H](C)[C@@H](O)[C@@H](C)[C@H](OC(C)=O)[C@@H]1C [RIFAMPIN],,,Not Active,Not Active,Not Active,Not Active,Not Active,,Not Active,Not Active,,,,,,,,
CCCCc1oc2ccccc2c1C(=O)c1cc(I)c(OCCN(CC)CC)c(I)c1 [AMIODARONE],,,Not Active,Not Active,,,,Not Active,,,,,,,,,,
CCOC(=O)N1CCC(=C2c3ccc(Cl)cc3CCc3cccnc32)CC1 [LORATADINE],,,Not Active,Not Active,Not Active,Not Active,Not Active,Not Active,Not Active,Not Active,,,,,,,,
N[C@@H](Cc1ccc(N(CCCl)CCCl)cc1)C(=O)O,,,Not Active,Not Active,Not Active,Not Active,Not Active,,Not Active,Not Active,,,,,,,,
Cc1noc(NS(=O)(=O)c2ccc(N)cc2)c1C [SULFISOXAZOLE],,,Not Active,Not Active,Not Active,Not Active,Not Active,Not Active,Not Active,Not Active,,,,,,,,
N[C@@H](Cc1cc(I)c(Oc2ccc(O)c(I)c2)c(I)c1)C(=O)O [LIOTHYRONINE],,,Not Active,Not Active,Not Active,,,Not Active,,,,,,,,,,
c1ccc([C@H]2CN3CCSC3=N2)cc1 [LEVAMISOLE],,,Not Active,Not Active,Not Active,Not Active,Not Active,Not Active,Not Active,Not Active,,,,,,,,
CC1(C)O[C@@H]2C[C@H]3[C@@H]4CCC5=CC(=O)C=C[C@]5(C)[C@@]4(F)[C@@H](O)C[C@]3(C)[C@]2(C(=O)CO)O1 [TRIAMCINOLONE ACETONIDE],,,Not Active,Not Active,Not Active,Not Active,Not Active,,Not Active,Not Active,,,,,,,,
N#CC(C#N)=Cc1ccc(O)c(O)c1 [TYRPHOSTIN 23],,,Not Active,Not Active,Not Active,Not Active,Not Active,Not Active,Not Active,Not Active,,,,,,,,
Nc1nc2nc[nH]c2c(=S)[nH]1 [THIOGUANINE],,,Not Active,Not Active,Not Active,Not Active,Not Active,Not Active,Not Active,Not Active,,,,,,,,
NS(=O)(=O)c1cc2c(cc1Cl)NC(C(Cl)Cl)NS2(=O)=O (stereo unspecified) [TRICHLORMETHIAZIDE],,,Not Active,Not Active,Not Active,Not Active,Not Active,,Not Active,Not Active,,,,,,,,
CC(C)N1CCN(c2ccc(OCC3COC(Cn4cncn4)(c4ccc(Cl)cc4Cl)O3)cc2)CC1 (stereo unspecified) [TERCONAZOLE],2230,1480,Not Active,Not Active,Not Active,,,Not Active,,,12400,4240,,,,,,
CN1CCN(CCCN2c3ccccc3Sc3ccc(Cl)cc32)CC1 [PROCHLORPERAZINE],,,Not Active,Not Active,Not Active,,,Not Active,,,,,,,,,,
CC(C)(C)NC(=O)[C@@H]1C[C@@H]2CCCC[C@@H]2CN1C[C@@H](O)[C@H](Cc1ccccc1)NC(=O)[C@H](CC(N)=O)NC(=O)c1ccc2ccccc2n1,,,Not Active,Not Active,Not Active,Not Active,Not Active,Not Active,Not Active,Not Active,,,,,,,,
SODIUM NITROPRUSSIDE,,,Not Active,Not Active,Not Active,Not Active,Not Active,Not Active,Not Active,Not Active,,,Not Active,Not Active,Not Active,Not Active,,
NC[C@H]1CC[C@H](C(=O)O)CC1 [TRANEXAMIC ACID],,,Not Active,Not Active,Not Active,Not Active,Not Active,Not Active,Not Active,Not Active,,,,,,,,
CC/C(=C(\c1ccccc1)c1ccc(OCCN(C)C)cc1)c1ccccc1 [TAMOXIFEN],,,Not Active,Not Active,,,,,,,,,,,,,9400,9240
N[C@@H]1[C@H]2CN(c3nc4c(cc3F)c(=O)c(C(=O)O)cn4-c3ccc(F)cc3F)C[C@@H]12 [TROVAFLOXACIN],,,Not Active,Not Active,Not Active,Not Active,Not Active,Not Active,Not Active,Not Active,,,,,,,,
CC[C@@H](CO)NC(=O)[C@@H]1C=C2c3cccc4[nH]cc(c34)C[C@H]2N(C)C1 [METHYLERGONOVINE],2930,1960,Not Active,Not Active,Not Active,Not Active,Not Active,Not Active,,,,,,,,,,
Cc1nc2n(c(=O)c1CCN1CCC(c3noc4cc(F)ccc34)CC1)CCCC2 [RISPERIDONE],,,Not Active,Not Active,,,,Not Active,,,,,,,,,,
O=NN(CCCl)C(=O)NC1CCCCC1 [LOMUSTINE],,,Not Active,Not Active,Not Active,Not Active,Not Active,,Not Active,Not Active,,,,,,,,
